Results as given in ChEMBL document CHEMBL1201862, “PubChem BioAssay data set” (2004).
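These data come from cells grown in 96-well plates and exposed to compound for 48 hours at five concentrations. GI50 marks 50% less growth.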 Active and inactive are the calls of the source. Cut-off read from the data, not from the text of the source: active = GI50 up to about 1.1 µM and inactive = higher.

Columns and labels:
Assay in all cases: inhibition of tumour cell growth, NCI panel, 48 h
SK-MEL-28 = tested on: SK-MEL-28
IGROV-1 = tested on: IGROV-1
MDA-MB-435 = tested on: MDA-MB-435
UO-31 = tested on: UO-31
COLO 205 = tested on: COLO 205
SK-MEL-5 = tested on: SK-MEL-5
Malme-3M = tested on: Malme-3M
SN12C = tested on: SN12C
786-0 = tested on: 786-0
UACC-62 = tested on: UACC-62
MDA-N = tested on: MDA-N
HCT-15 = tested on: HCT-15
SF-539 = tested on: SF-539
OVCAR-4 = tested on: OVCAR-4
NCI-H522 = tested on: NCI-H522
OVCAR-5 = tested on: OVCAR-5
Hs-578T = tested on: Hs-578T
SR = tested on: SR
ACHN = tested on: ACHN
U-251 = tested on: U-251

Structure (SMILES) | GI50 (SK-MEL-28) | GI50 (IGROV-1) | GI50 (MDA-MB-435) | GI50 (UO-31) | GI50 (COLO 205) | GI50 (SK-MEL-5) | GI50 (Malme-3M) | GI50 (SN12C) | GI50 (786-0) | GI50 (UACC-62) | GI50 (MDA-N) | GI50 (HCT-15) | GI50 (SF-539) | GI50 (OVCAR-4) | GI50 (NCI-H522) | GI50 (OVCAR-5) | GI50 (Hs-578T) | GI50 (SR) | GI50 (ACHN) | GI50 (U-251)
CC(C)=CC[C@H]1C[C@]2(CC=C(C)C)C(=O)[C@@](CC=C(C)C)(C(=O)C(C(=O)c3ccccc3)=C2O)C1(C)C [6-EPI-CLUSIANONE] | 10.2 µM (inactive) | 3.82 µM (inactive) | 5.4 µM (inactive) | 3.44 µM (inactive) | 3.94 µM (inactive) | 4.53 µM (inactive) | 6.49 µM (inactive) | 3.49 µM (inactive) | 5.51 µM (inactive) | 3.44 µM (inactive) | 5.21 µM (inactive) | 5.04 µM | 11.6 µM (inactive) | 5.15 µM (inactive) | 5.38 µM (inactive) | 4.98 µM (inactive) | 14.3 µM (inactive) | 8.65 µM (inactive) | 4.88 µM (inactive) | 4.31 µM (inactive)
COc1ccc(C(=O)/C=C/c2cc(O)c(O)cc2F)c(OC)c1 | 11.8 µM (inactive) | 7.96 µM (inactive) | 2.9 µM (inactive) | 7.67 µM (inactive) | 15.8 µM (inactive) | 8.05 µM (inactive) | 7.71 µM (inactive) | 3.94 µM (inactive) | 5.45 µM (inactive) | 10.9 µM (inactive) | 2.54 µM (inactive) | 0.448 µM | 6.04 µM (inactive) | 12.5 µM (inactive) | 0.354 µM (active) | 15.3 µM (inactive) | 4.8 µM (inactive) | 0.564 µM (active) | 7.08 µM (inactive) | 5.45 µM (inactive)
COC(=O)c1ccc(C)cc1CC1Cc2c(C)cccc2C1=O (stereo not given) | 15.2 µM (inactive) | 5.62 µM (inactive) | 1.82 µM (inactive) | 15.9 µM (inactive) | 5.69 µM (inactive) | 5.82 µM (inactive) | 10.7 µM (inactive) | 6.62 µM (inactive) | 12.8 µM (inactive) | 6.01 µM (inactive) | 1.87 µM (inactive) | 3.05 µM | 8.17 µM (inactive) | 25.5 µM (inactive) | 4.46 µM (inactive) | 34.4 µM (inactive) | 8.55 µM (inactive) | 9.35 µM (inactive) | 22.2 µM (inactive) | 5.96 µM (inactive)
CC(C)N(CC(=O)O)CC(=O)O | > 100 µM (inactive) | > 100 µM (inactive) | > 100 µM (inactive) | > 100 µM (inactive) | > 100 µM (inactive) | > 100 µM (inactive) | > 100 µM (inactive) | > 100 µM (inactive) | > 100 µM (inactive) | > 100 µM (inactive) | > 100 µM (inactive) | > 100 µM | > 100 µM (inactive) | > 100 µM (inactive) | > 100 µM (inactive) | > 100 µM (inactive) | > 100 µM (inactive) | > 100 µM (inactive) | > 100 µM (inactive) | > 100 µM (inactive)
CCOC(=O)CCSc1nc2ccc(I)cc2c(=O)n1Cc1ccccc1 | > 65.6 µM (inactive) | 9.91 µM (inactive) | 27.5 µM (inactive) | 0.395 µM (active) | 12.4 µM (inactive) | 12.6 µM (inactive) | 17.9 µM (inactive) | 31.8 µM (inactive) | 25.6 µM (inactive) | 27.4 µM (inactive) | 25.7 µM (inactive) | 18 µM | 36.4 µM (inactive) | 19.5 µM (inactive) | 10.7 µM (inactive) | > 83.8 µM (inactive) | 25.2 µM (inactive) | 7.24 µM (inactive) | 29.5 µM (inactive) | 33 µM (inactive)
COC(=O)[C@H](Cc1ccccc1)NC(=O)c1ccc(CNC(=O)/C=C/c2ccc(OCc3ccccc3)cc2)cc1 | 4.49 µM (inactive) | 2.7 µM (inactive) | 2.62 µM (inactive) | 14 µM (inactive) | > 73.3 µM (inactive) | 7.87 µM (inactive) | 3.5 µM (inactive) | 13.9 µM (inactive) | 5.11 µM (inactive) | 4.44 µM (inactive) | 2.19 µM (inactive) | 40.1 µM | 16.4 µM (inactive) | 6.55 µM (inactive) | 65.9 µM (inactive) | 38.2 µM (inactive) | 5.66 µM (inactive) | 12.1 µM (inactive) | 14.9 µM (inactive) | 18.1 µM (inactive)
